Reference: ChEMBL document CHEMBL2375280, “Synthesis of novel 1,3,4-trisubstituted pyrazoles as anti-inflammatory and analgesic agents” (Eur J Med Chem, 2013)

Columns and labels:
[1] = tested on: Rattus norvegicus; assay: Antiinflammatory activity in Wistar albino rat assessed as inhibition of carrageenan-induced paw edema at 0.32 mmol/kg, ip administered 1 hr prior to carrageenan challenge measured at 3 hrs by plethysmometric analysis relative to control; type: functional
[2] = tested on: Rattus norvegicus; assay: Antiinflammatory activity in Wistar albino rat assessed as inhibition of carrageenan-induced paw edema at 0.32 mmol/kg, ip administered 1 hr prior to carrageenan challenge measured at 2 hrs by plethysmometric analysis relative to control; type: functional
[3] = tested on: Rattus norvegicus; assay: Ulcerogenic effect in albino rat stomach assessed as ulcer index at 0.32 mmol/kg, po administered for 3 days measured 2 hrs post last dose; type: toxicity, organism-based; details: in vivo
[4] = tested on: Mus musculus; assay: Analgesic activity in albino mouse assessed as protection against p-benzoquinone-induced writhing at 0.32 mmol/kg, ip administered 1 hr prior to p-benzoquinone challenge measured for 30 mins relative to control; type: functional
[5] = tested on: Rattus norvegicus; assay: Antiinflammatory activity in Wistar albino rat assessed as inhibition of carrageenan-induced paw edema at 0.16 mmol/kg, ip administered 1 hr prior to carrageenan challenge measured at 3 hrs by plethysmometric analysis relative to control; type: functional
[6] = Acute toxicity in ip dosed mouse assessed as mortality measured for 24 hrs; type: organism-based; details: in vivo
[7] = species on record: Homo sapiens; assay: Selectivity ratio for COX1 (unknown origin) over COX2 (unknown origin)
[8] = tested on: Rattus norvegicus; assay: Antiinflammatory activity in ip dosed Wistar albino rat assessed as inhibition of carrageenan-induced paw edema administered 1 hr prior to carrageenan challenge measured at 3 hrs by plethysmometric analysis; type: functional, organism-based
[9] = tested on: Rattus norvegicus; assay: Antiinflammatory activity in Wistar albino rat assessed as inhibition of carrageenan-induced paw edema at 0.08 mmol/kg, ip administered 1 hr prior to carrageenan challenge measured at 3 hrs by plethysmometric analysis relative to control; type: functional

Structure (SMILES)	inhibition in vivo at 320 µmol/kg [1] [%]	inhibition in vivo at 320 µmol/kg [2] [%]	Activity [4] [%]	other results
Cc1ccc(-c2nn(-c3ccc(Cl)cc3)cc2/C=N\c2ccccc2)cc1	49.3	40.1		
COc1ccc(-c2nn(-c3ccc(Cl)cc3)cc2-c2cc(-c3ccc(Cl)cc3)[nH]c2-c2ccc(F)cc2)cc1	61.9	53.7	33.33	UI [3]: 12
COc1ccc(-c2nn(-c3ccc(Cl)cc3)cc2C(CC(=O)c2ccc(Cl)cc2)C(=O)c2ccc(F)cc2)cc1 (centres undefined)	37.8	19.8		
COc1ccc(/N=C\c2cn(-c3ccc(Cl)cc3)nc2-c2ccc(OC)cc2)cc1	82.2	69.2	66.67	UI [3]: 14.32; inhibition in vivo at 160 µmol/kg [5]: 43%; LD50 at 24 h [6]: 3250 µmol/kg; Selectivity ratio [7]: 1.17; IC50 [8]: 0.2 mmol/kg; inhibition in vivo at 80 µmol/kg [9]: 37.5%
COc1ccc(-c2nn(-c3ccc(S(N)(=O)=O)cc3)cc2C(CC(=O)c2ccc(Cl)cc2)C(=O)c2ccc(F)cc2)cc1 (centres undefined)	68.1	72.2	33.33	
Cc1ccc(-c2nn(-c3ccc(S(N)(=O)=O)cc3)cc2/C=N\c2ccc(Cl)cc2)cc1	78.4	69.1	33.33	UI [3]: 5.8
COc1ccc(-c2nn(-c3ccc(S(N)(=O)=O)cc3)cc2C=O)cc1	81.5	83	16.67	UI [3]: 11.2
COc1ccc(-c2nn(-c3ccc(Cl)cc3)cc2/C=N\c2ccc(Cl)cc2)cc1	72.6	69.6	33.33	UI [3]: 5.4; Selectivity ratio [7]: 0.95
Cc1ccc(-c2nn(-c3ccc(Cl)cc3)cc2/C=N\c2ccc(Cl)cc2)cc1	49.2	48.3		
Cc1ccc(-c2nn(-c3ccc(S(N)(=O)=O)cc3)cc2-c2cc(-c3ccc(Cl)cc3)[nH]c2-c2ccc(F)cc2)cc1	66.7	75.4	16.67	UI [3]: 15; inhibition in vivo at 160 µmol/kg [5]: 43.6%; LD50 at 24 h [6]: 3250 µmol/kg; Selectivity ratio [7]: 0.87; IC50 [8]: 0.21 mmol/kg; inhibition in vivo at 80 µmol/kg [9]: 14%
Cc1ccc(-c2nn(-c3ccc(S(N)(=O)=O)cc3)cc2/C=N\c2ccccc2)cc1	57.1	58.1		
COc1ccc(C(=O)C(CC(=O)c2ccc(Cl)cc2)c2cn(-c3ccc(Cl)cc3)nc2-c2ccc(C)cc2)cc1 (centres undefined)	23.9	16.1		
COc1ccc(C(=O)C(CC(=O)c2ccc(Cl)cc2)c2cn(-c3ccc(S(N)(=O)=O)cc3)nc2-c2ccc(OC)cc2)cc1 (centres undefined)	22.5	30.8		
COc1ccc(C(=O)C(CC(=O)c2ccc(Cl)cc2)c2cn(-c3ccc(Cl)cc3)nc2-c2ccc(OC)cc2)cc1 (centres undefined)	9.61	0		
Cc1ccc(-c2nn(-c3ccc(S(N)(=O)=O)cc3)cc2C=O)cc1	68.2	58.4	16.67	UI [3]: 9.6
COc1ccc(-c2nn(-c3ccc(S(N)(=O)=O)cc3)cc2-c2cc(-c3ccc(Cl)cc3)[nH]c2-c2ccc(F)cc2)cc1	55.9	55.7		
Cc1ccc(-c2nn(-c3ccc(Cl)cc3)cc2C=O)cc1	56	49.9		
CCCCC1C(=O)N(c2ccccc2)N(c2ccccc2)C1=O [PHENYLBUTAZONE]	70.5	57.3	33.33	UI [3]: 30.2; inhibition in vivo at 160 µmol/kg [5]: 42.1%; IC50 [8]: 0.22 mmol/kg; inhibition in vivo at 80 µmol/kg [9]: 20%
COc1ccc(-c2[nH]c(-c3ccc(Cl)cc3)cc2-c2cn(-c3ccc(S(N)(=O)=O)cc3)nc2-c2ccc(C)cc2)cc1	34.2	49.7	50	

Structure (SMILES)	inhibition in vivo at 320 µmol/kg [1] [%]	inhibition in vivo at 320 µmol/kg [2] [%]	Activity [4] [%]	other results
COc1ccc(/N=C\c2cn(-c3ccc(S(N)(=O)=O)cc3)nc2-c2ccc(OC)cc2)cc1	68.5	65.8	33.33	UI [3]: 16.4; LD50 at 24 h [6]: 3250 µmol/kg
COc1ccc(/N=C\c2cn(-c3ccc(S(N)(=O)=O)cc3)nc2-c2ccc(C)cc2)cc1	56.2	48.8		
COc1ccc(C(=O)C(CC(=O)c2ccc(Cl)cc2)c2cn(-c3ccc(S(N)(=O)=O)cc3)nc2-c2ccc(C)cc2)cc1 (centres undefined)	61.1	53.8	50	
Cc1ccc(-c2nn(-c3ccc(Cl)cc3)cc2-c2cc(-c3ccc(Cl)cc3)[nH]c2-c2ccc(F)cc2)cc1	21	38.3	33.33	UI [3]: 13
Cc1ccc(-c2nn(-c3ccc(Cl)cc3)cc2C(CC(=O)c2ccc(Cl)cc2)C(=O)c2ccc(F)cc2)cc1 (centres undefined)	19.4	25.9		
COc1ccc2c(c1)c(CC(=O)O)c(C)n2C(=O)c1ccc(Cl)cc1				Selectivity ratio [7]: 3.94
COc1ccc(-c2nn(-c3ccc(S(N)(=O)=O)cc3)cc2/C=C\C(=O)c2ccc(Cl)cc2)cc1	56	55.6		
COc1ccc(-c2nn(-c3ccc(Cl)cc3)cc2/C=C\C(=O)c2ccc(Cl)cc2)cc1	66.4	53.7		
Cc1ccc(-c2nn(-c3ccc(S(N)(=O)=O)cc3)cc2C(CC(=O)c2ccc(Cl)cc2)C(=O)c2ccc(F)cc2)cc1 (centres undefined)	56.2	53.5	50	
COc1ccc(-c2nn(-c3ccc(Cl)cc3)cc2-c2cc(-c3ccc(Cl)cc3)[nH]c2-c2ccc(OC)cc2)cc1	20.7	10.5		
Cc1ccc(-c2nn(-c3ccc(Cl)cc3)cc2/C=C\C(=O)c2ccc(Cl)cc2)cc1	61.4	49.2		
COc1ccc(-c2nn(-c3ccc(Cl)cc3)cc2/C=N\c2ccccc2)cc1	72.6	57.2	16.67	
COc1ccc(-c2nn(-c3ccc(S(N)(=O)=O)cc3)cc2/C=N\c2ccccc2)cc1	55.4	38.5		
COc1ccc(-c2nn(-c3ccc(S(N)(=O)=O)cc3)cc2/C=N\c2ccc(Cl)cc2)cc1	62.8	63	50	LD50 at 24 h [6]: 2440 µmol/kg
COc1ccc(-c2[nH]c(-c3ccc(Cl)cc3)cc2-c2cn(-c3ccc(Cl)cc3)nc2-c2ccc(C)cc2)cc1	21.3	9.38		
COc1ccc(-c2nn(-c3ccc(Cl)cc3)cc2C=O)cc1	57.6	63.1	33.33	
COc1ccc(/N=C\c2cn(-c3ccc(Cl)cc3)nc2-c2ccc(C)cc2)cc1	48.9	62	16.67	
COc1ccc(-c2nn(-c3ccc(S(N)(=O)=O)cc3)cc2-c2cc(-c3ccc(Cl)cc3)[nH]c2-c2ccc(OC)cc2)cc1	28.6	48.1		
Cc1ccc(-c2nn(-c3ccc(S(N)(=O)=O)cc3)cc2/C=C\C(=O)c2ccc(Cl)cc2)cc1	47.6	53.3		
